From US20230346785A1, “4-PYRROLIDIN-1-Yl-5-P-TOLYL-THIENO[2,3-D] PYRIMIDINE FOR USE IN THE TREATMENT OF AGING-ASSOCIATED AND PREMATURE AGING DISEASES THROUGH RESTORED CHROMOSOMAL STABILITY AND INHIBITION OF CELLULAR SENESCENCE” (IBMC - INSTITUTO DE BIOLOGIA MOLECULAR E CELULAR, priority 2020, published 2023)

Legend:
Type in all cases: cell-based
[1] = system: elderly human dermal fibroblasts (HDF); assay: Cyto-D FISH chromosome mis-segregation in cytokinesis-blocked binucleated (BN) cells; conditions: 1 µM
Experimental: (§1) Human dermal fibroblasts (HDFs) retrieved from skin samples of neonatal (No. GM21811, Coriell Institute; No. DFM021711A, Zen Bio) and octogenarian (No. AG07135; AG13993; AG09271; AG10884; all from Coriell Institute) were used. All donors were reported as “healthy”. For all experiments, HDFs were seeded at 1x10^4 cells per cm2 of growth area in minimal essential medium Eagle-Earle (MEM) supplemented with 15% fetal bovine serum (FBS), 2 mM L-glutamine, and 1x antibiotic-antimycotic (all from Gibco, Thermo Fisher Scientific). Only early passage dividing fibroblasts (up to passage 3-5) with cumulative population doubling level PDL < 24 were used.
Proteasome inhibitor MG-132 (474790, EMD Millipore) was used at 5 µM for 2 hrs to arrest cells at the metaphase stage. Cytochalasin D (C8273, Sigma-Aldrich) was used at 1 µM for 24 hrs to block cytokinesis. Fibroblasts were treated with 2.5 µM STLC (2191, TOCRIS) for 5 hrs to inhibit kinesin-5 activity and induce monopolar spindles, followed by a washout into fresh medium with 500 nM of Aurora kinase B inhibitor ZM447439 (S1103, Selleckchem) to potentiate chromosome segregation errors. […]
(§2) FISH was used to score aneusomy indexes (Interphase FISH; FIGS. 4D, 5C) and chromosome mis-segregation (MS) rates. MS rates were scored by Cyto-D FISH (FIGS. 4E and 5D), or by FISH on STLC-washed-out fibroblasts (FIGS. 1G,H). […]

[2] = system: elderly human dermal fibroblasts (HDF); assay: 53BP1/p21 double immunostaining senescence biomarkers; conditions: 1 µM
Experimental: as §1
For immunofluorescence, fibroblasts were grown on sterilized glass coverslips coated with 50 µg/ml fibronectin (F1141, Sigma-Aldrich) and fixed with 4% paraformaldehyde in PBS for 20 min. […]
(§3) For image analysis, both live-cell phenotypes (mitotic duration, lagging chromosomes) and fixed-cell experiments (protein intensity, k-fiber intensity, KT distances, FISH, MN counts, cGAS positivity and SA biomarkers) were blindly quantified using ImageJ/Fiji software. […] DNA aggregates co-localizing with cGAS were scored as MN positive for cGAS. For the analysis of SA biomarkers (53bpl/p21 and SA-β-galactosidase), fluorescence intensity thresholds were set and used consistently for all samples within each experiment. […]

[3] = system: elderly human dermal fibroblasts (HDF); assay: Mitotic duration by long-term phase-contrast time-lapse microscopy, elderly cells
Experimental: as §1, §3
(§4) FIG. 4: Small molecule agonist of MCAK activity UMK57 rescues age-associated CIN and delays senescence. […] (D) Aneusomy index of chromosomes 7, 12 and 18 measured by interphase FISH analysis. […]

[4] = system: elderly human dermal fibroblasts (HDF); assay: SA-β-galactosidase activity assay; conditions: 1 µM
Experimental: as §1, §3

[5] = system: elderly human dermal fibroblasts (HDF); assay: Interphase FISH aneusomy index of chromosomes 7, 12 and 18; conditions: 1 µM
Experimental: as §1
For FISH, MN counts, cGAS immunofluorescence and SA biomarkers, images were captured with the IN Cell Analyzer 2000 (GE Healthcare, UK) equipped with a Photometrics CoolSNAP K4 camera and driven by the GE IN Cell Analyzer 2000 v5.2 software, using a Nikon 20x/0.45 NA Plan Fluor objective and a Nikon 40x/0.95 NA Plan Fluor objective, respectively.
1 µM of UMK57 was used to enhance kinesin-13 activity during the time periods indicated for each experiment.
as §2

[6] = system: elderly human dermal fibroblasts (HDF); assay: Calcium-stable k-fiber intensity analysis in metaphase; conditions: 1 µM
Experimental: Human dermal fibroblasts (HDFs) retrieved from skin samples of neonatal (No. GM21811, Coriell Institute; No. DFM021711A, Zen Bio) and octogenarian (No. AG07135; AG13993; AG09271; AG10884; all from Coriell Institute) were used. All donors were reported as “healthy”. For all experiments, HDFs were seeded at 1x10^4 cells per cm2 of growth area in minimal essential medium Eagle-Earle (MEM) supplemented with 15% fetal bovine serum (FBS), 2 mM L-glutamine, and 1x antibiotic-antimycotic (all from Gibco, Thermo Fisher Scientific). Only early passage dividing fibroblasts (up to passage 3-5) with cumulative population doubling level PDL < 24 were used. […]
In fluorescence microscopy, cells with calcium-stabilized k-fibers or stained for specific kinetochore/centromere-bound proteins (Aurora B/Aim-1, Hec1/Ndc80, MCAK, Plk1, pAuroraB T232 and ACA) were imaged using a Zeiss AxioImager Z1 (Carl Zeiss, Oberkochen, Germany) motorized upright epifluorescence microscope, equipped with an Axiocam MR camera and operated by the Zeiss Axiovision v4.7 software. […]
For image analysis, both live-cell phenotypes (mitotic duration, lagging chromosomes) and fixed-cell experiments (protein intensity, k-fiber intensity, KT distances, FISH, MN counts, cGAS positivity and SA biomarkers) were blindly quantified using ImageJ/Fiji software. […] DNA aggregates co-localizing with cGAS were scored as MN positive for cGAS. […]

[7] = system: neonatal (N) human dermal fibroblasts (HDF); assay: Mitotic duration by long-term phase-contrast time-lapse microscopy, neonatal cells; conditions: 1 µM, 24 hrs (FIG. 4A)
Experimental: as §1, §3, §4

[8] = system: elderly human dermal fibroblasts (HDF); assay: Micronuclei (MN) counts; conditions: 1 µM, 24-hour exposure (FIG. 4F)
Experimental: as §1, §3

With `Cc1ccc(-c2csc3ncnc(N4CCCC4)c23)cc1` [UMK57, 4-Pyrrolidin-1-yl-5-p-tolyl-thieno[2,3-d] pyrimidine] as the molecule, how does the “chromosome mis-segregation rate in binucleated (BN) cells” value ([1]; 24 hrs, cytochalasin D (FIG. 4E)) read?
The value was “decreases”.

And the “chromosome mis-segregation (BN cells FISH)” value ([1]; 96 hours (FIG. 5D))?
Its value is “inhibited”.

What about the “percentage of cells exhibiting the senescence biomarkers 53bp1+p21” value ([2]; 24-hour treatment (FIG. 4G)) of the same molecule?
Its value is “partially rescue”.

And the “senescence markers: 53BP1/p21 positive cells” value ([2]; 96 hrs (FIG. 5E))?
Its value is “partial rescue”.

What about the “mitotic delay of elderly cells” value ([3]; 1 µM, 96-hour treatment (FIG. 5A)) of the same molecule?
Its value is “rescued”.

And the “concentration sufficient to rescue the increased mitotic duration in elderly cells” value ([3]; increasing concentrations, 24-hour time-lapse (FIG. 4A))?
The value was 1 µM.

What about the “percentage of cells exhibiting SA-β-galactosidase activity” value ([4]; 24-hour treatment (FIG. 4H)) of the same molecule?
Its value is “partially rescue”.

And the “senescence markers: SA-β-gal positive cells” value ([4]; 96 hrs (FIG. 5F))?
Its value is “partial rescue”.

What about the “levels of aneuploidy (aneusomy index, interphase FISH)” value ([5]; 24 hrs (FIG. 4D)) of the same molecule?
The value was “decreases the levels of aneuploidy”.

What about the “aneuploidy (interphase FISH)” value ([5]; 96 hours (FIG. 5C)) of the same molecule?
Its value is “inhibited”.

And the “number of stable k-MT attachments in metaphase (calcium-stable k-fiber intensity)” value ([6]; 24 hrs (FIG. 4B,C))?
The value was “decreases the number of stable k-MT attachments in metaphase”.

And the “k-fiber intensity levels in metaphase” value ([6]; 96 hours (FIG. 5B))?
Its value is “decreased k-fiber intensity levels”.

What about the “effect on the mitotic progression of neonatal cultures” value [7] of the same molecule?
Its value is “no noticeable effect”.

What about the “MN (micronuclei) levels” value [8] of the same molecule?
Its value is “partly decreased”.
